Assays:
[1] = test system: CB-iPSC6.2-derived retinal cups (RCs); assay: Retinoic acid treatment of hiPSC-derived retinal cups, rod-opsin expression by immunohistochemistry; format: cell-based, human; conditions: for rod-opsin expression (qualitative, microscopic observation): 3 independent experiments
Protocol: (§1) To promote photoreceptor maturation, suspension cultures of RCs were supplemented daily with 1 μM all-trans retinoic acid (RA; Sigma) at various time windows: W7-W17; W7-W14 or W10-W14; subsequently, RA concentration was decreased to 0.5 μM.
(§2) RCs were fixed in 4% PFA for 30 min. […] DAPI was used for nuclear counterstaining (Molecular Probes).

[2] = test system: KA.1- and IMR90-4-derived RCs; assay: as above; format: cell-based, human; conditions: RA treatment in W10-W14
Protocol: as §1, §2

Which “rod-opsin expression (qualitative, microscopic observation)” value ([1]; 1 μM RA during W10-W14, W17 and W21) does the source give for `CC1=C(/C=C/C(C)=C/C=C/C(C)=C/C(=O)O)C(C)(C)CCC1` [retinoic acid, all-trans retinoic acid] here?
The value was “dispersed cells with strong rod-opsin expression in their cell bodies already at W17”.

What about the “rod-opsin expression (qualitative, microscopic observation)” value ([1]; 1 μM RA in W7-W14) of the same molecule?
Its value is “low levels of rod-opsin expression in the distal part of photoreceptor cells”.

And the “retinal cups showing dispersed cells with higher rod-opsin expression, also in cell bodies” value ([1]; 1 μM retinoic acid W10-W14, evaluated at W17, n=8)?
The value was roughly 50%.

And the “retinal cups showing a significant increase in the number of photoreceptors expressing rod opsin” value ([1]; 1 μM retinoic acid W10-W14, evaluated by W21, n=20)?
Its value is 90%.

And the “rod-opsin expression (qualitative, microscopic observation)” value [2]?
Its value is “induction of rod-opsin expression was also observed, although at a later time and less efficiently than in CB-iPSC6.2-derived RCs”.

— patent publication US11981919B2, “Methods for forming three-dimensional human retinal tissue in vitro” (THE JOHNS HOPKINS UNIVERSITY, priority 2014, dated 2024)
